Data: the kinase profiling compilation of Christmann-Franck et al. (2016)

Experiments:
Assay in all cases: radiometric filter-binding kinase assay, Kinase HotSpot
Conditions in all cases: compound 0.5 µM; ATP 10 µM
AKT2 (human) = AKT2 (human) (UniProt P31751)
DDR2 (human) = DDR2 (human) (UniProt Q16832)
MST4 (human) = MST4 (human) (UniProt Q9P289)
PRKCB1 (human) = PRKCB1 (human) (UniProt P05771)
BLK (human) = BLK (human) (UniProt P51451)
SGK2 (human) = SGK2 (human) (UniProt Q9HBY8)
PKN2 (human) = PKN2 (human) (UniProt Q16513)
CDK5 CDK5R1 p25 (human) = CDK5 CDK5R1 p25 (human) (UniProt Q00535+Q15078)
SRC (human) = SRC (human) (UniProt P12931)
STK11 (human) = STK11 (human) (UniProt Q15831)
PRKCZ (human) = PRKCZ (human) (UniProt Q05513)
FGFR3 (human) = FGFR3 (human) (UniProt P22607)
CDK7 CCNH MNAT1 (human) = CDK7 CCNH MNAT1 (human) (UniProt P50613+P51948+P51946)
MARK4 (human) = MARK4 (human) (UniProt Q96L34)
Chain of MARK4 (human) (Q96L34 whole entry, looked up): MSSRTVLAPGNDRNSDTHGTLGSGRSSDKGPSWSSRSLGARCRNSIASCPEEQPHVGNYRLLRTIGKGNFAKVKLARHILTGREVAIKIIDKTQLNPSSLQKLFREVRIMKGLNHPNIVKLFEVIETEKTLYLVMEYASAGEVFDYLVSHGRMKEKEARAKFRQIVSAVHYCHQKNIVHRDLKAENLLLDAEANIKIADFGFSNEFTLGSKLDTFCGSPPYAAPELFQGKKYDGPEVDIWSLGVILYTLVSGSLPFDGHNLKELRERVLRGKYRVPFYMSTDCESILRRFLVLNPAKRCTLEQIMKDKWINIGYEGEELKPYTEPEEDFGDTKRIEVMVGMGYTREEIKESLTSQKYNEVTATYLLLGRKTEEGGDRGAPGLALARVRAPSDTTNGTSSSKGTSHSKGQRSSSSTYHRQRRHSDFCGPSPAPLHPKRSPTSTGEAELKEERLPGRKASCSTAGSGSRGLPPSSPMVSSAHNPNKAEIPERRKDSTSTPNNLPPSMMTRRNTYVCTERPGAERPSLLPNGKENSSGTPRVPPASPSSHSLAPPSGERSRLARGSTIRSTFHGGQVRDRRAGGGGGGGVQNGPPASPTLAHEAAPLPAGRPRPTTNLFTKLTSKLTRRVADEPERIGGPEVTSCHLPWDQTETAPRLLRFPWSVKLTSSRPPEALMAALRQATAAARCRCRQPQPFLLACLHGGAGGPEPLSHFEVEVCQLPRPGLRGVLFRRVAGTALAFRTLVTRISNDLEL

IKBKE (human) = IKBKE (human) (UniProt Q14164)
GRK4 (human) = GRK4 (human) (UniProt P32298)
INSRR (human) = INSRR (human) (UniProt P14616)
CSNK1D (human) = CSNK1D (human) (UniProt P48730)
RPS6KA5 KD2 (human) = RPS6KA5 KD2 (human) (UniProt O75582)
MAPK12 (human) = MAPK12 (human) (UniProt P53778)
BMX (human) = BMX (human) (UniProt P51813)
Chain of BMX (human) (P51813 whole entry, looked up): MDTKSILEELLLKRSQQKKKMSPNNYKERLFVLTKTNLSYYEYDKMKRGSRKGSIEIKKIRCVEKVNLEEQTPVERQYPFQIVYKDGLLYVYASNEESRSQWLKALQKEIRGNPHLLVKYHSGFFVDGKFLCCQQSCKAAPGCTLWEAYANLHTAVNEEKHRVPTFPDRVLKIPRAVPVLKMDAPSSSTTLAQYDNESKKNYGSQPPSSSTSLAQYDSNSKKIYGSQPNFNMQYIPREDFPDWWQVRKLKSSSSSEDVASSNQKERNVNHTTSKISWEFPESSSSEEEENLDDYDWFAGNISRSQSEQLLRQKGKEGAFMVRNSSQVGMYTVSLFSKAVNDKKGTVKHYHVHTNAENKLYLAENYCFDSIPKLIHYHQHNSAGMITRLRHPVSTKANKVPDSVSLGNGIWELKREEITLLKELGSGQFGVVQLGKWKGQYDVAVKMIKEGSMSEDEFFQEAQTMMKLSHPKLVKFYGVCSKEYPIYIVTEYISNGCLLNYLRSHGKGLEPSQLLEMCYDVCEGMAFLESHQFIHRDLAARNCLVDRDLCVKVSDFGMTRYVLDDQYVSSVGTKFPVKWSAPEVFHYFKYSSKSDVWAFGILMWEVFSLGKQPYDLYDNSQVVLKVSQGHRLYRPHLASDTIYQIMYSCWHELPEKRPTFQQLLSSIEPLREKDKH

STK17A (human) = STK17A (human) (UniProt Q9UEE5)
FGFR1 (human) = FGFR1 (human) (UniProt P11362)
DMPK (human) = DMPK (human) (UniProt Q09013)
MAPK13 (human) = MAPK13 (human) (UniProt O15264)
CDK4 CCND3 (human) = CDK4 CCND3 (human) (UniProt P30281+P11802)
ZAP70 (human) = ZAP70 (human) (UniProt P43403)
DCLK2 (human) = DCLK2 (human) (UniProt Q8N568)
RPS6KB2 (human) = RPS6KB2 (human) (UniProt Q9UBS0)
HIPK2 (human) = HIPK2 (human) (UniProt Q9H2X6)
Chain of HIPK2 (human) (Q9H2X6 whole entry, looked up): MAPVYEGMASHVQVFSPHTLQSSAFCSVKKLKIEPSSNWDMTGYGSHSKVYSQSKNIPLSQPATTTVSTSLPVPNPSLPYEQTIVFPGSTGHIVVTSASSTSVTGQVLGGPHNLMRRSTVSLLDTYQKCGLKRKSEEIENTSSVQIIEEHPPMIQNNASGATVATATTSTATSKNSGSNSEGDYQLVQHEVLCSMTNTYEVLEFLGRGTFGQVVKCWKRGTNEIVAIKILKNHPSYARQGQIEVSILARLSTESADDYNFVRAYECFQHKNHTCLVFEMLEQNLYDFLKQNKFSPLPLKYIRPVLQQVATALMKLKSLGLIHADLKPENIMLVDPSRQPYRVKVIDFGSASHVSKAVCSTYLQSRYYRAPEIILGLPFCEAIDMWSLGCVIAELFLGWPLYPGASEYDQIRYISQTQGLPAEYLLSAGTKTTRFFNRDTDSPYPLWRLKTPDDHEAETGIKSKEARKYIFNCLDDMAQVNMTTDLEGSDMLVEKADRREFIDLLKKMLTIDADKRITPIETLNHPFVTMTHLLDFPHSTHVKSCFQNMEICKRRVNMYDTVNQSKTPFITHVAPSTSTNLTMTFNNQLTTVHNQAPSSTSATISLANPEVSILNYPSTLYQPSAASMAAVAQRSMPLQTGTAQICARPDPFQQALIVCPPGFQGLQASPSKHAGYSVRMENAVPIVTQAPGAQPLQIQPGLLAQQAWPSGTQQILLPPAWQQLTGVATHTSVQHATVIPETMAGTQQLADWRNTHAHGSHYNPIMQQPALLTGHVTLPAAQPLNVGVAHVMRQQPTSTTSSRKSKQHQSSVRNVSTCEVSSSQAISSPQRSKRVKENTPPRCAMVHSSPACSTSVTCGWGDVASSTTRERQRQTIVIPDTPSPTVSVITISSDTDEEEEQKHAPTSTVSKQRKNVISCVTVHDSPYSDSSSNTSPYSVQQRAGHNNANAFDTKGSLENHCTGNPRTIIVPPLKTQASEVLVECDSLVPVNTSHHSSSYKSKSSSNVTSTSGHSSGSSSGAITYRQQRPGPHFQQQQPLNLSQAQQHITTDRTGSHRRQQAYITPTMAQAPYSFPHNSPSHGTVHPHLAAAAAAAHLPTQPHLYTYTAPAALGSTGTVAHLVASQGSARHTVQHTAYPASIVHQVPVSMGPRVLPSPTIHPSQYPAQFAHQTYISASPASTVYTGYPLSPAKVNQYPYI

TAOK1 (human) = TAOK1 (human) (UniProt Q7L7X3)
Chain of TAOK1 (human) (Q7L7X3 whole entry, looked up): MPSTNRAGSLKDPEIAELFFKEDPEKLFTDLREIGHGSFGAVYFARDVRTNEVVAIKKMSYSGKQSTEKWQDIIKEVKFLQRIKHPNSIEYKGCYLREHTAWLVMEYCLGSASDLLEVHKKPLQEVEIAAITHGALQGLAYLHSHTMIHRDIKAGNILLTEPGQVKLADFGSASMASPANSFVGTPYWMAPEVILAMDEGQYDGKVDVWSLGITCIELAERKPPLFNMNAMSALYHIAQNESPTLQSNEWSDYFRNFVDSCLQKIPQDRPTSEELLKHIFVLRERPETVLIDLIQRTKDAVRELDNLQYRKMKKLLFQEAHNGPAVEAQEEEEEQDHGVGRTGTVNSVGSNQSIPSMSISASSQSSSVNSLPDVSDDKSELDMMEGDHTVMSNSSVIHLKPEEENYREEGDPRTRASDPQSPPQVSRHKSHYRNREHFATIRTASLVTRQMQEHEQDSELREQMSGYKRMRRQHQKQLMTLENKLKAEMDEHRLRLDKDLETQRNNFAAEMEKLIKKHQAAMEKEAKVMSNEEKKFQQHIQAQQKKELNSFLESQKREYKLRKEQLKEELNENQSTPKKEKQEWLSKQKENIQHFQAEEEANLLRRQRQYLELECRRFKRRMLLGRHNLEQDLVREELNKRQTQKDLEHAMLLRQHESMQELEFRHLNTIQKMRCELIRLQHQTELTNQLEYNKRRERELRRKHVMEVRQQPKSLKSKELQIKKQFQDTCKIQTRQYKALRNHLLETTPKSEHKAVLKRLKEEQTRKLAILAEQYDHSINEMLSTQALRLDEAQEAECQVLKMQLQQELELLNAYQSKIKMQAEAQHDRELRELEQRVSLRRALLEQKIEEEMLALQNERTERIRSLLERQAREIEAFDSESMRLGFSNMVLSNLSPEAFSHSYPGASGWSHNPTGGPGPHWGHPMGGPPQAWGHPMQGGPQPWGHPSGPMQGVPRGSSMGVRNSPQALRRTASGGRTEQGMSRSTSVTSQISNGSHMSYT

TGFBR2 (human) = TGFBR2 (human) (UniProt P37173)
PLK1 (human) = PLK1 (human) (UniProt P53350)
Chain of PLK1 (human) (P53350 whole entry, looked up): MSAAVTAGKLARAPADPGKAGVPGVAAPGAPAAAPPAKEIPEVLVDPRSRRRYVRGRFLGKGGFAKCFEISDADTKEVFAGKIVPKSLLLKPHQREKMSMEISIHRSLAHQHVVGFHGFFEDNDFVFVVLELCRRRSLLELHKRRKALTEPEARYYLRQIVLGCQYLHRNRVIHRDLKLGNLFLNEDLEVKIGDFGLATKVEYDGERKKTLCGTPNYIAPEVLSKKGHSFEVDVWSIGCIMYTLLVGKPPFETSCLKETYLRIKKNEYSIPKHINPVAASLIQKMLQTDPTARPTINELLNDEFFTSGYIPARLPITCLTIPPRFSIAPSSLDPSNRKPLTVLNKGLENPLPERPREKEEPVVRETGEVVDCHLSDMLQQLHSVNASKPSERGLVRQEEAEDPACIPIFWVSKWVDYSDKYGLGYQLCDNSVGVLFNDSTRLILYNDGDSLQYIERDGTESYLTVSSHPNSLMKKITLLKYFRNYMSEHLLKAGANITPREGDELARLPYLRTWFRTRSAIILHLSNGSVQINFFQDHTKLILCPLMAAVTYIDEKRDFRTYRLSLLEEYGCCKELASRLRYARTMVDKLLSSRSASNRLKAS

NEK7 (human) = NEK7 (human) (UniProt Q8TDX7)
HCK (human) = HCK (human) (UniProt P08631)
EPHA8 (human) = EPHA8 (human) (UniProt P29322)
PAK4 (human) = PAK4 (human) (UniProt O96013)
WNK2 (human) = WNK2 (human) (UniProt Q9Y3S1)
YES1 (human) = YES1 (human) (UniProt P07947)
GSG2 (human) = GSG2 (human) (UniProt Q8TF76)
EPHA7 (human) = EPHA7 (human) (UniProt Q15375)
WEE1 (human) = WEE1 (human) (UniProt P30291)

Chain of DDR2 (human) (Q16832 whole entry, looked up): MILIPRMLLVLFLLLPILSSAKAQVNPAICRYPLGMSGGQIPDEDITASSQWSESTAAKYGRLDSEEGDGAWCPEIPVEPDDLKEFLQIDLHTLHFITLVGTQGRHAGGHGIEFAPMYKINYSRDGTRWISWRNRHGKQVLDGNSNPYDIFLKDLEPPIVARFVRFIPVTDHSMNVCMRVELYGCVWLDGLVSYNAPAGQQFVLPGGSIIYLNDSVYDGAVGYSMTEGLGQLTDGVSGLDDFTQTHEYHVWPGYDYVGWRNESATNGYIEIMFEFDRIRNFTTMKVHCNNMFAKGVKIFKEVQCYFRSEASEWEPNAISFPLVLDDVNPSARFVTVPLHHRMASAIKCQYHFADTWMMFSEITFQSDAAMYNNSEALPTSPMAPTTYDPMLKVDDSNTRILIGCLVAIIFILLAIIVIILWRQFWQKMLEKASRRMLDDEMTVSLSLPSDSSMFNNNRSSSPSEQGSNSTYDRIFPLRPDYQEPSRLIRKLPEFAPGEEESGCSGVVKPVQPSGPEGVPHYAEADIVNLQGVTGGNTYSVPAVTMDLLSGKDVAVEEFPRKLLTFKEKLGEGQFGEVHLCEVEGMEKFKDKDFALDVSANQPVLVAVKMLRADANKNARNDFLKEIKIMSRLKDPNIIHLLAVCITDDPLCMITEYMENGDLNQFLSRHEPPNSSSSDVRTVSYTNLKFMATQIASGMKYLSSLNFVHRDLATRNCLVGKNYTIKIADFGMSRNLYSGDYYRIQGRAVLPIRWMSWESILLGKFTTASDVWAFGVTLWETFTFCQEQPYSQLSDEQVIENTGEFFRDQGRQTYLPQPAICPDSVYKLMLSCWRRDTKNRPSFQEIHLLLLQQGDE

## O=c1cc(N2CCOCC2)oc2c1ccc1ccccc12
AKT2 (human)
  residual activity: 98.9%
DDR2 (human)
  residual activity: 105%
MST4 (human)
  residual activity: 93.2%
PRKCB1 (human)
  residual activity: 93.4%
BLK (human)
  residual activity: 104%
SGK2 (human)
  residual activity: 102%
PKN2 (human)
  residual activity: 93.2%
CDK5 CDK5R1 p25 (human)
  residual activity: 98.9%
SRC (human)
  residual activity: 99.3%
STK11 (human)
  residual activity: 104%
PRKCZ (human)
  residual activity: 106%
FGFR3 (human)
  residual activity: 98.2%
CDK7 CCNH MNAT1 (human)
  residual activity: 98.2%
MARK4 (human)
  residual activity: 102%
IKBKE (human)
  residual activity: 101%
GRK4 (human)
  residual activity: 104%
INSRR (human)
  residual activity: 97.4%
CSNK1D (human)
  residual activity: 97.9%
RPS6KA5 KD2 (human)
  residual activity: 103%
MAPK12 (human)
  residual activity: 97.4%
BMX (human)
  residual activity: 92.7%
STK17A (human)
  residual activity: 94.6%
FGFR1 (human)
  residual activity: 92.1%
DMPK (human)
  residual activity: 105%
MAPK13 (human)
  residual activity: 99.8%
CDK4 CCND3 (human)
  residual activity: 96.8%
ZAP70 (human)
  residual activity: 103%
DCLK2 (human)
  residual activity: 100%
RPS6KB2 (human)
  residual activity: 99.6%
HIPK2 (human)
  residual activity: 105%
TAOK1 (human)
  residual activity: 97.5%
TGFBR2 (human)
  residual activity: 122%
PLK1 (human)
  residual activity: 68.4%
NEK7 (human)
  residual activity: 96.6%
HCK (human)
  residual activity: 114%
EPHA8 (human)
  residual activity: 101%
PAK4 (human)
  residual activity: 108%
WNK2 (human)
  residual activity: 103%
YES1 (human)
  residual activity: 98.7%
GSG2 (human)
  residual activity: 85.6%
EPHA7 (human)
  residual activity: 98.6%
WEE1 (human)
  residual activity: 101%

## N#C/C(=C(/N)Sc1ccc(N)cc1)c1ccccc1C(F)(F)F
AKT2 (human)
  residual activity: 102%
DDR2 (human)
  residual activity: 102%
MST4 (human)
  residual activity: 97.2%
PRKCB1 (human)
  residual activity: 93.1%
BLK (human)
  residual activity: 111%
SGK2 (human)
  residual activity: 99%
PKN2 (human)
  residual activity: 99.9%
CDK5 CDK5R1 p25 (human)
  residual activity: 93.1%
SRC (human)
  residual activity: 94.1%
STK11 (human)
  residual activity: 102%
PRKCZ (human)
  residual activity: 106%
FGFR3 (human)
  residual activity: 98.5%
CDK7 CCNH MNAT1 (human)
  residual activity: 100%
MARK4 (human)
  residual activity: 101%
IKBKE (human)
  residual activity: 102%
GRK4 (human)
  residual activity: 98.4%
INSRR (human)
  residual activity: 88.1%
CSNK1D (human)
  residual activity: 106%
RPS6KA5 KD2 (human)
  residual activity: 97.9%
MAPK12 (human)
  residual activity: 97.4%
BMX (human)
  residual activity: 99.7%
STK17A (human)
  residual activity: 82.6%
FGFR1 (human)
  residual activity: 108%
DMPK (human)
  residual activity: 102%
MAPK13 (human)
  residual activity: 104%
CDK4 CCND3 (human)
  residual activity: 108%
ZAP70 (human)
  residual activity: 102%
DCLK2 (human)
  residual activity: 99.1%
RPS6KB2 (human)
  residual activity: 105%
HIPK2 (human)
  residual activity: 115%
TAOK1 (human)
  residual activity: 98.3%
TGFBR2 (human)
  residual activity: 113%
PLK1 (human)
  residual activity: 92.6%
NEK7 (human)
  residual activity: 93.9%
HCK (human)
  residual activity: 93.9%
EPHA8 (human)
  residual activity: 94.1%
PAK4 (human)
  residual activity: 99.4%
WNK2 (human)
  residual activity: 109%
YES1 (human)
  residual activity: 111%
GSG2 (human)
  residual activity: 99.9%
EPHA7 (human)
  residual activity: 105%
WEE1 (human)
  residual activity: 73.8%

## Cc1ccc(S(=O)(=O)/C=C/C#N)cc1
AKT2 (human)
  residual activity: 94.9%
DDR2 (human)
  residual activity: 96.4%
MST4 (human)
  residual activity: 90.7%
PRKCB1 (human)
  residual activity: 101%
BLK (human)
  residual activity: 103%
SGK2 (human)
  residual activity: 112%
PKN2 (human)
  residual activity: 81.5%
CDK5 CDK5R1 p25 (human)
  residual activity: 86.8%
SRC (human)
  residual activity: 102%
STK11 (human)
  residual activity: 91.1%
PRKCZ (human)
  residual activity: 101%
FGFR3 (human)
  residual activity: 95.2%
CDK7 CCNH MNAT1 (human)
  residual activity: 98.2%
MARK4 (human)
  residual activity: 99%
IKBKE (human)
  residual activity: 101%
GRK4 (human)
  residual activity: 96.8%
INSRR (human)
  residual activity: 98%
CSNK1D (human)
  residual activity: 103%
RPS6KA5 KD2 (human)
  residual activity: 109%
MAPK12 (human)
  residual activity: 90.5%
BMX (human)
  residual activity: 105%
STK17A (human)
  residual activity: 97.8%
FGFR1 (human)
  residual activity: 106%
DMPK (human)
  residual activity: 89%
MAPK13 (human)
  residual activity: 92.2%
CDK4 CCND3 (human)
  residual activity: 100%
ZAP70 (human)
  residual activity: 97.5%
DCLK2 (human)
  residual activity: 96.1%
RPS6KB2 (human)
  residual activity: 109%
HIPK2 (human)
  residual activity: 83.9%
TAOK1 (human)
  residual activity: 96.5%
TGFBR2 (human)
  residual activity: 97.9%
PLK1 (human)
  residual activity: 110%
NEK7 (human)
  residual activity: 93.4%
HCK (human)
  residual activity: 100%
EPHA8 (human)
  residual activity: 96.8%
PAK4 (human)
  residual activity: 91.9%
WNK2 (human)
  residual activity: 124%
YES1 (human)
  residual activity: 94.2%
GSG2 (human)
  residual activity: 101%
EPHA7 (human)
  residual activity: 99.8%
WEE1 (human)
  residual activity: 96.4%
